Measurements as given in patent US20110224197A1, “PYRIMIDINES AND PYRIDINES USEFUL AS INHIBITORS OF PROTEIN KINASES” (Vertex Pharmaceuticals Incorporated, priority 2008, published 2011).

Test system: E16 rat hippocampal or cortical neurons
Experiment: Axonal Branching Assay
Type: cell-based
Procedure: Compounds are tested for the ability to enhance axonal branching in E16 rat hippocampal or cortical neurons.
1 mg/ml stock of PDL is diluted into 100 μg/ml in DI water. The glass coverslips are coated for at least 1 hour at 37° C. prior to doing the dissection. PDL is aspirated and the plates are rinsed with PBS and air-dried in hood.
Cortical or hippocampal lobes are combined with 9 mL of Base media (Neurobasal+Pen/Strep) and put on ice. 1 mL of 10× trypsin solution is added and the mixture is swirled gently. The tissue is then digested via incubation in a 37° C. waterbath for 20 minutes. After 20 minutes, 10 μl/ml DNase (100 μL DNase) is added and the mixture is incubated for another 5 minutes.
The cells are spun at 1000 rpm for 1 minute. The enzyme solution is then removed without removing any of the brain fragments sitting on the bottom. […] The cells are counted in a hemacytometer and seeded at 5000-10000 cells/well in a 24 well plate with glass coverslip inserts coated with PDL. […]
Images are captured at 10× and 20× on an upright microscope and axonal branching is determined by quantification of area under threshold fluorescence of neurofilament Alexa 488 per cell. Dendritic branching is determined by quantification of area under threshold fluorescence of MAP2 Alexa 568 per cell. Alternatively, branching can be determined by manual counting of branch points per cell. […]

Q: With Cc1nc(-c2ccccc2Cl)nc(Nc2n[nH]c3ncc(F)cc23)c1C [Compound I-37, N-(2-(2-chlorophenyl)-5,6-dimethylpyrhnidin-4-yl)-5-fluoro-1H-pyrazolo[3,4-b]pyridin-3-amine] as the compound, how does the “axonal and dendritic branching” value (10 nM, 7 days) read?
A: increased axonal and dentritic branching

Q: What about the axon growth (concentrations shown to induce β-catenin) of the same compound?
A: axon growth was inhibited
